The values below come from ChEMBL document CHEMBL1201862, “PubChem BioAssay data set” (2004).

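Five compound concentrations were applied to cells in 96-well plates for 48 hours; endpoints were derived by simple linear interpolation of the resulting dose-response curve. GI50: concentration for 50% inhibition of growth.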 Active and inactive are the calls of the source. No stated cut-off is given here; in the data, active = GI50 up to about 1.1 µM and inactive = higher.

Common to all, as to assay: NCI anticancer screen, dose series, 48 h
For experiment [1], the system named is 786-0.
Experiment [2] relates to A549.
Experiment [3] deals with CAKI-1.
Experiment [4] deals with DU-145.
The test system of experiment [5] is HCT-116.
The test system of experiment [6] is HOP-62.
Experiment [7] deals with M14.
The subject of experiment [8] is MDA-MB-231.
Experiment [9] relates to MDA-N.
The subject of experiment [10] is MOLT-4.
The test system of experiment [11] is NCI-H460.
In experiment [12] the test system is PC-3.
Experiment [13] deals with SK-MEL-2.
The test system of experiment [14] is SK-OV-3.
The test system of experiment [15] is SN12C.
Experiment [16] deals with SW-620.
Experiment [17] deals with T47D.
Experiment [18] deals with UACC-62.
The subject of experiment [19] is SR.

Regarding `C=C(C)C1CC2=C(O1)C(=O)c1cccc(O)c1C2=O` (centres undefined), the GI50 in experiment [1] is 9.12 µM (inactive); in experiment [2], 2.47 µM (inactive); in experiment [3], 0.764 µM (active); in experiment [4], 1.76 µM (inactive); in [5], 10.9 µM (inactive); in [6] it was 1.57 µM (inactive). For the same compound, the GI50 in experiment [7] is 0.951 µM (active); in experiment [8] it was 1.82 µM (inactive); in experiment [9] it was 0.064 µM (active); in experiment [10], 0.2 µM (active); in [11] it was 1.91 µM (inactive); in experiment [12] it was 1.69 µM (inactive). Moreover, the GI50 is 1.17 µM (inactive) in [13]; 1.51 µM (inactive) in [14]; 1.21 µM (inactive) in experiment [15]; 0.929 µM (active) in [16]; 1.23 µM (inactive) in experiment [17]; 0.883 µM (active) in [18].

`COC(=O)CN1Cc2cc(C)cc(c2O)CN(CC(=O)OC)Cc2cc(C)cc(c2O)CN(CC(=O)OC)Cc2cc(C)cc(c2O)C1`: the GI50 in experiment [1] was > 100 µM (inactive); in experiment [2] it was > 100 µM (inactive); in [3], > 100 µM (inactive); in experiment [4], > 41 µM (inactive); in experiment [5] it was 12.6 µM (inactive); in [6] it was > 40.3 µM (inactive). Further, the GI50 in [7] was > 37.8 µM (inactive); in [8] it was > 36.8 µM (inactive); in experiment [9] it was > 87.9 µM (inactive); in [10], > 100 µM (inactive); in [11] it was 0.272 µM (active); in experiment [12], > 32.9 µM (inactive). For the same compound, the GI50 in experiment [13] was > 39.8 µM (inactive); in experiment [14], > 45.5 µM (inactive); in experiment [15], > 100 µM (inactive); in experiment [16] it was > 87.3 µM (inactive); in experiment [17], > 20.1 µM (inactive); in experiment [18], > 100 µM (inactive).

For `COc1ccc2c(c1)O[C@@H]1C(O)Oc3cc(OC)c(OC)cc3[C@]1(O)C2=O` (some centres undefined), the GI50 was > 100 µM (inactive) in [1]; 9.1 µM (inactive) in experiment [2]; > 100 µM (inactive) in [3]; > 100 µM (inactive) in [4]; 86.3 µM (inactive) in experiment [5]; > 100 µM (inactive) in experiment [6]. In addition, the GI50 is > 100 µM (inactive) in [7]; 72.3 µM (inactive) in experiment [8]; 50.1 µM (inactive) in experiment [9]; 36.6 µM (inactive) in experiment [10]; 69 µM (inactive) in experiment [11]; 59.6 µM (inactive) in experiment [12]. Moreover, the GI50 in [13] was > 100 µM (inactive); in experiment [14], > 100 µM (inactive); in experiment [15], > 100 µM (inactive); in experiment [16], 88.7 µM (inactive); in experiment [17] it was 31.2 µM (inactive); in experiment [18] it was 78 µM (inactive).

Take `COC(=O)C(Cc1ccccc1)NP(=O)(O)OCC1OC(n2cc(I)c(=O)[nH]c2=O)CC1O` (centres undefined): the GI50 in experiment [1], in experiment [2], in experiment [3], in [4], in experiment [5] and in [6] was > 100 µM (inactive) each time. In addition, the GI50 in [7], in experiment [8], in experiment [9], in experiment [10], in experiment [11] and in [12] was > 100 µM (inactive) each time. The GI50 in experiment [14], in [15], in experiment [19], in experiment [16], in experiment [17] and in [18] was > 100 µM (inactive) throughout.

With `[O-]/[N+](=N\c1ccccc1CO)c1ccccc1CO`, the GI50 in [1], in experiment [2], in experiment [3], in [4], in [5] and in experiment [7] was > 100 µM (inactive) in each case. Besides, the GI50 in experiment [8], in experiment [9], in [10], in experiment [11], in [12] and in experiment [13] was > 100 µM (inactive) throughout. For the same compound, the GI50 in experiment [14], in experiment [15], in experiment [19], in experiment [16], in [17] and in experiment [18] was > 100 µM (inactive) each time.

For the compound `CC1=NNC(=O)C1C1(C(=O)O)CC(c2c[nH]c3ccccc23)=NC(=S)N1` (centres undefined), the GI50 is 28.3 µM (inactive) in experiment [1]; 37.7 µM (inactive) in [2]; 43.5 µM (inactive) in experiment [3]; 35.6 µM (inactive) in experiment [4]; 32.8 µM (inactive) in experiment [5]; 20 µM (inactive) in experiment [6]. Also, the GI50 is 16.9 µM (inactive) in experiment [7]; 24.3 µM (inactive) in [8]; 37.3 µM (inactive) in [9]; 19.4 µM (inactive) in experiment [10]; 22.8 µM (inactive) in experiment [11]; 27.5 µM (inactive) in [12]. The GI50 in experiment [13] was 18.4 µM (inactive); in experiment [14], 32.1 µM (inactive); in [15], 40 µM (inactive); in experiment [16] it was 38.5 µM (inactive); in experiment [17], 29 µM (inactive); in [18] it was 41.2 µM (inactive).

Turning to `Nc1nnc(-c2ccco2)c(-c2ccco2)n1`, the GI50 in [1], in experiment [2], in [3], in [4], in [5] and in experiment [7] was > 100 µM (inactive) in each case. Further, the GI50 in experiment [8], in [9], in experiment [10], in experiment [11], in experiment [12] and in experiment [13] was > 100 µM (inactive) in each case. The GI50 in [14], in experiment [15], in [19], in experiment [16], in experiment [17] and in [18] was > 100 µM (inactive) each time.

Turning to `CC1OC(OC2C(O)COC(OC3C(C)OC(OC4C(OC(=O)[C@]56CCC(C)(C)C[C@@H]5C5=CCC7[C@@]8(C)C[C@H](O)[C@H](OC9OC(CO)C(O)C(OC%10OC(CO)C(O)C(O)C%10O)C9O)[C@@](C)(CO)[C@@H]8CC[C@@]7(C)[C@]5(C)CC6)OCC(O)C4O)C(O)C3OC3OCC(O)(CO)C3O)C2O)C(O)C(O)C1O` (some centres undefined), the GI50 in [1] was 8.09 µM (inactive); in [2], 6.61 µM (inactive); in experiment [3] it was 3.98 µM (inactive); in experiment [4] it was 8.28 µM (inactive); in experiment [5], 11.2 µM (inactive); in [6] it was 9.95 µM (inactive). Also, the GI50 is 6.15 µM (inactive) in [7]; 8.05 µM (inactive) in experiment [8]; 10.2 µM (inactive) in [9]; 9.77 µM (inactive) in [10]; 12.7 µM (inactive) in experiment [11]; 6 µM (inactive) in experiment [12]. In addition, the GI50 in experiment [14] is 9.29 µM (inactive); in experiment [15], 3.66 µM (inactive); in experiment [19] it was 6.28 µM (inactive); in [16], 6.43 µM (inactive); in experiment [17] it was 6.92 µM (inactive); in [18], 12.9 µM (inactive).
